Our source for the melting point and inhibition values is patent US6803378B2, “HIV integrase inhibitors” (Bristol-Myers Squibb Company, priority 2000, dated 2004).

For one data set, the target named is T1, HIV-1 integrase (Human immunodeficiency virus type 1 group M subtype B, UniProt P04585).
T1 construct: Purified recombinant HIV-1 integrase was incubated with immobilized precleaved substrate DNA
Briefly: In vitro activity against integrase, Method A (immobilized precleaved substrate DNA, biotinylated target DNA, 96 well plate). It counts as biochemical. Conditions: Assay Method A, read-out: Percent inhibition of HIV Integrase at 70 uM. On the procedure:
(§1) The in vitro activities, against integrase, of compounds of the present invention were measured by one of the following three methods.
In Method A, the in vitro activity against integrase was measured in a manner which was similar to previously disclosed methods (cf. Hazuda, D. J.; Felock, P.; Witmer, M.; Wolfe, A.; Stillmock, K.; Grobler, J. A.; Espeseth, A.; Gabryelski, L.; Schleif, W.; Blau, C.; Miller, M. D. Science, 2000, 287, 646) Purified recombinant HIV-1 integrase was incubated with immobilized precleaved substrate DNA in a 96 well plate for 20 min at 37° C. After the integration complex was formed, compounds at desired concentrations were added to the wells followed by a 10 min incubation at 37° C. Biotinyted Target DNA was then added and the reaction was carried out for an additional 1 hour at 37° C. Wells were then washed thoroughly to remove any free DNA and integration activity was measured by using a commercial kit to quantitate the amount of biotinyted target DNA integrated into the substrate.

The target in data set [1] is T2, HIV Integrase (Human immunodeficiency virus type 1 group M subtype B, UniProt P04585).
T2 construct: 0.26 ng of recombinant integrase was then incubated with the beads
Briefly: In vitro activity against integrase, Method B (SPA assay). It counts as biochemical. Conditions: read-out: Percent inhibition of HIV Integrase at 70 uM. On the procedure:
as §1
(§2) In Method B, the in vitro activity against integrase was measured by binding, for each reaction, 5 pmole of biotin labeled substrate DNA to 100 ug of Streptavidin coated PVT SPA beads (Amersham Pharmacia Biotech). 0.26 ng of recombinant integrase was then incubated with the beads for 90 min at 37° C. Unbound enzyme was removed by washing the complex followed by addition of inhibitors and 0.1 fmol of P33 labeled target DNA. Reaction was stopped by adding EDTA to a final concentration of 10 mM. Samples were counted in TopCountNXT (Packard) and the CPM was used as a measure of integration. Reaction condition was as described in A. Engelman and R. Craigie, J. Virol. 69, 5908-5911 (1995). The sequences of substrate and target DNA were described in Nucleic Acid Research 22, 1121-1122 (1994).

Data set [2] has as its target T2, HIV Integrase. Briefly: In vitro activity against integrase, Method C (electroluminescence, ECL assay). It counts as biochemical. The following applies: read-out: Percent inhibition of HIV Integrase at 70 uM. On the procedure:
as §1, §2
Method C (Electroluminesence Assay):
The ECL assay of Method C is essentially the same as the SPA assay of Method B, except that 0.5 μg of Streptavidin coated magnetic beads and 0.5 pmol Ru labeled target DNA were used for each reaction instead of SPA beads and P33 labeled DNA. The samples were read in a M8 analyzer (IGEN International, Inc).

With `O=C(O)/C(O)=C/C(=O)N(Cc1ccc(Cl)cc1)Cc1ccc(Cl)c(Cl)c1`, the melting point is 152 °C (dec.).
For the compound `CN(Cc1ccccc1Cl)C(=O)/C=C(\O)C(=O)O` [Compound 10, 3-[(2-Chloro-benzyl)-methyl-carbamoyl]-2-hydroxy-acrylic acid], the melting point lay in the range of 84 to 86 °C. Besides, the inhibition at 70 µM at HIV-1 integrase worked out at 79%.
For the compound `O=C(O)/C(O)=C/C(=O)N(Cc1ccc(F)cc1)Cc1ccc(F)cc1` [Compound 11, 3-[Bis-(4-fluoro-benzyl)-carbamoyl]-2-hydroxy-acrylic acid], the melting point was > 147 °C (dec.). Also, on HIV Integrase [1], the inhibition at 70 µM stood at 97%.
Take `O=C(O)/C(O)=C/C(=O)N(CCCc1ccccc1F)Cc1ccc(F)cc1` [Compound 51, 3-{(4-Fluoro-benzyl)-[3-(2-fluoro-phenyl)-propyl]-carbamoyl}-2-hydroxy-acrylic acid]: on HIV Integrase [2], the inhibition at 70 µM is 100%.
With `O=C(O)/C(O)=C/C(=O)N(Cc1ccc(F)cc1)CC1CC1c1ccccc1` (stereo not drawn) [Compound 52, 3-[(4-Fluoro-benzyl)-(2-phenyl-cyclopropylmethyl)-carbamoyl]-2-hydroxy-acrylic acid], the inhibition at 70 µM at HIV Integrase [2] stood at 99%.
Still for that read-out and setting: the value for `CN(Cc1ccco1)C(=O)/C=C(\O)C(=O)O` [Compound 75, 3-(Furan-2-ylmethyl-methyl-carbamoyl)-2-hydroxy-acrylic acid] was 91%; that for `CN(C(=O)/C=C(\O)C(=O)O)C(Cc1ccc(F)cc1)c1ccc(F)cc1` (stereo not drawn) [Compound 78, 3-{[1,2-Bis-(4-fluoro-phenyl)-ethyl]-methyl-carbamoyl}-2-hydroxy-acrylic acid] was 75%.
Still for that read-out and setting: then `CNC(=O)c1cccc(C(c2ccc(F)cc2)N(C)C(=O)/C=C(\O)C(=O)O)c1` (stereo not drawn) [Compound 79, 3-{[(4-Fluoro-phenyl)-(3-methylcarbamoyl-phenyl)-methyl]-methyl-carbamoyl}-2-hydroxy-acrylic acid], with 90%; and `O=C(O)/C(O)=C/C(=O)N(CCCc1ccc(-c2ccccc2)cc1)Cc1ccc(F)cc1` [Compound 85, 3-[(3-Biphenyl-4-yl-propyl)-(4-fluoro-benzyl)-carbamoyl]-2-hydroxy-acrylic acid], with 94%.
On the same count and under the same terms, then `O=C(O)/C(O)=C/C(=O)N(CCc1ccncc1)Cc1ccc(F)cc1` [Compound 86, 3-[(4-Fluoro-benzyl)-(2-pyridin-4-yl-ethyl)-carbamoyl]-2-hydroxy-acrylic acid], with 97%.
With `O=C(O)/C(O)=C/C(=O)N(CCCc1ccccc1Cl)Cc1ccc(F)cc1` [Compound 87, 3-[[3-(2-Chloro-phenyl)-propyl]-(4-fluoro-benzyl)-carbamoyl]-2-hydroxy-acrylic acid], the inhibition at 70 µM at HIV Integrase [2] was 99%.
As for `CCCNC(=O)/C(O)=C/C(=O)N(Cc1ccc(F)cc1)Cc1ccc(F)cc1` [Compound 144, 2-Hydroxy-but-2-enedioic acid 4-[bis-(4-fluoro-benzyl)-amide] 1-propylamide], the inhibition at 70 µM at HIV Integrase [2] amounted to 83%.
On the same count and under the same terms, the value for `O=C(CCCCCNC(=O)/C(O)=C/C(=O)N(CCCc1ccccc1Cl)Cc1ccc(F)cc1)NS(=O)(=O)c1ccccc1` [Compound 147, 2-Hydroxy-but-2-enedioic acid 1-[(6-benzenesulfonylamino-6-oxo-hexyl)-amide] 4-[[3-(2-chloro-phenyl)-propyl]-(4-fluoro-benzyl)-amide]] was 98%.
